From patent US9617278B2, “Antimicrobial compounds” (Dow Global Technologies LLC, priority 2012, dated 2017)

Columns and labels:
[1] = system: Thermus thermophilus (ATCC 27634); experiment: Biocidal efficacy at elevated temperature; type: cell-based; settings: for log kill of treated bacterial populations relative to an untreated control: 50 ppm glutaraldehyde equivalent
Method: Compound 1 (208 mg) is dissolved in DMSO (5 mL) to yield a 200 mM solution such that the glutaraldehyde-equivalent concentration of the stock solution is 20,000 ppm. The bacterial strain Thermus thermophilus (ATCC 27634) is maintained at 70° C. After 24-48 hours of growth, 10 mL of bacterial culture are harvested by spinning in a Beckman-Coulter benchtop centrifuge at 3000 rpm for 15 min. The cell pellet is resuspended in 100 mL of phosphate-buffered saline (PBS) to give approximately 5×10^5 CFU/mL and aliquoted into 10 mL portions in glass test tubes fitted with screw caps. Samples are equilibrated to 37, 55, or 70° C. for 30 min and then treated with glutaraldehyde or Compound 1 at 50 ppm glutaraldehyde equivalent. The treated samples are returned to their respective equilibration temperatures for 4 h and then enumerated for surviving bacteria. After 24 h, the process is repeated by adding fresh grown bacteria to the samples to re-challenge the biocide. The samples are again enumerated after 4 h.
Results are reported in terms of log kill of treated bacterial populations relative to an untreated control at each temperature. For values listed as “>x,” actual kill may have been higher but could not be detected by this assay.

[2] = system: mixed pool of 6 bacterial species (aerobic organisms); experiment: Biocidal efficacy at room temperature, aerobic bacteria; type: cell-based
Method: (§1) Glutaraldehyde and Compounds 1 and 2 are tested for biocidal activity against a pool of aerobic organisms at room temperature and against sulfate reducing bacteria (SRB) at room temperature. Tests are performed as follows:
(§2) a. Stock preparation. Glutaraldehyde (50% in water) and Compounds 1 and 2 are each dissolved in DMSO to a concentration of 200 mM, which is equivalent to 20,000 ppm of free glutaraldehyde.
b. Aerobic Bacteria—a mixed pool of 6 bacterial species at ˜5×10^6 CFU/mL in phosphate buffered saline is distributed into a 96-well plate. Each well receives an independent chemical treatment of glutaraldehyde or Compound 1 or 2 at concentrations ranging from 200 ppm to 12 ppm glutaraldehyde. A control treatment of DMSO alone is also included. Each condition is tested in triplicate. After set periods of incubation (1, 4, and 24 h), the number of surviving cells in each well are enumerated by dilution to extinction in a medium containing resazurin dye as an indicator. c. Sulfate Reducing Bacteria (SRB)—SRB testing is performed as for the aerobic bacteria with the following modifications: the species Desulfovibrio longus is tested in anaerobic PBS and the enumeration of surviving cells is performed in a medium containing soluble iron as an indicator. d. Results: Values indicate the minimum dose needed (in ppm) to achieve 3-log reduction in bacteria levels. […]

[3] = system: Desulfovibrio longus; experiment: Biocidal efficacy at room temperature, sulfate reducing bacteria (SRB); type: cell-based; settings: for minimum dose needed to achieve 3-log reduction in bacteria levels: SRB, anaerobic PBS, doses 200 to 12 ppm glutaraldehyde equivalent, n/a = threshold not met at any tested dose; for activity against SRB (in words): compared with glutaraldehyde
Method: as §1, §2
b. Aerobic Bacteria—a mixed pool of 6 bacterial species at ˜5×10^6 CFU/mL in phosphate buffered saline is distributed into a 96-well plate. Each well receives an independent chemical treatment of glutaraldehyde or Compound 1 or 2 at concentrations ranging from 200 ppm to 12 ppm glutaraldehyde. A control treatment of DMSO alone is also included. Each condition is tested in triplicate. After set periods of incubation (1, 4, and 24 h), the number of surviving cells in each well are enumerated by dilution to extinction in a medium containing resazurin dye as an indicator. c. Sulfate Reducing Bacteria (SRB)—SRB testing is performed as for the aerobic bacteria with the following modifications: the species Desulfovibrio longus is tested in anaerobic PBS and the enumeration of surviving cells is performed in a medium containing soluble iron as an indicator. d. Results: Values indicate the minimum dose needed (in ppm) to achieve 3-log reduction in bacteria levels. “n/a” indicates the threshold was not met at any of the tested doses. “N.D” indicates data not available.

[4] = Stability of the compound on work-up, GC of dried sample; type: physicochemical; settings: GC peak becomes smaller after drying of the crude material
Method: A three neck 50 mL round bottom flask equipped with a stir bar, thermocouple, addition funnel capped with nitrogen inlet and condenser is charged with 2-amino-2-methylpropan-1-ol (95%, 7.8 g, 0.083 mols, 1.0 equivalents). The flask is cooled down to approximately 10° C. under ice/water bath. Once the temperature is reached, glutaraldehyde (50%, 16.7 g, 0.083 mols, 1.0 equivalents) is added drop wise over a period of 15-20 minutes. The reaction temperature is maintained by cooling the bath and by controlled addition of glutaraldehyde. After complete addition of glutaraldehyde, the transparent reaction mixture turns milky/opaque and a viscous sticky solid starts forming making stirring difficult. The reaction is stopped and the GC of the material is taken and a peak at 11.99 minutes is observed which corresponds to compound (4). The GC has some minor impurities in the high retention region. 20 mL of ethyl acetate is added to the reaction mixture and vigorously stirred under nitrogen. The entire content of the flask dissolve in ethyl acetate. The ethyl acetate layer is washed twice with 25 mL of water and the organic layer dried in magnesium sulfate.
A three neck 100 mL round bottom flask equipped with a stir bar, thermocouple, addition funnel capped with nitrogen inlet and condenser is charged with 3-aminobutan-2-ol (100%, 8.9 g, 0.1mols, 1.0 equivalent). […]

SMILES: CCCCC1OC2CCC=CN2C1CC (stereo not drawn) [Compound 1, 2-butyl-3-ethyl-3,7,8,8a-tetrahydro-2H-oxazolo[3,2-a]pyridine]
- log kill of treated bacterial populations relative to an untreated control ([1]; 37° C., 4 hr): >3 log
- log kill of treated bacterial populations relative to an untreated control ([1]; 37° C., 24 hr re-challenge with fresh bacteria, enumerated after 4 h): 2 log
- log kill of treated bacterial populations relative to an untreated control ([1]; 55° C., 4 hr): >3 log
- log kill of treated bacterial populations relative to an untreated control ([1]; 55° C., 24 hr re-challenge with fresh bacteria, enumerated after 4 h): 1 log
- activity compared with glutaraldehyde (in words) ([1]; 70° C.): equivalent activity to glutaraldehyde
- log kill of treated bacterial populations relative to an untreated control ([1]; 70° C., 4 hr): >4 log
- log kill of treated bacterial populations relative to an untreated control ([1]; 70° C., 24 hr re-challenge with fresh bacteria, enumerated after 4 h): >4 log
- activity compared with glutaraldehyde (in words) ([1]; lower temperatures (37, 55° C.)): less effective
- biocidal activity against aerobic bacteria (in words) [2]: do not show significant biocidal activity
- minimum dose needed to achieve 3-log reduction in bacteria levels ([3]; 4 hours): 200 ppm
- minimum dose needed to achieve 3-log reduction in bacteria levels ([3]; 24 hours): 26 ppm
- activity against SRB (in words) [3]: some activity against SRB, but are not as effective as glutaraldehyde

SMILES: CC1(C)COC2CCC=CN21 (stereo not drawn) [Compound 4, 3,3-dimethyl-3,7,8,8a-tetrahydro-2H-oxazolo[3,2-a]pyridine]
- stability of the compound (in words) [4]: limited stability

SMILES: CC1OC2CCC=CN2C1C (stereo not drawn) [Compound 5, 2,3-dimethyl-3,7,8,8a-tetrahydro-2H-oxazolo[3,2-a]pyridine]
- stability of the compound (in words) [4]: limited stability

SMILES: CCCCC(CC)C1OC2CCC=CN2C1C (stereo not drawn) [Compound 2, 2-(heptan-3-yl)-3-methyl-3,7,8,8a-tetrahydro-2H-oxazolo[3,2-a]pyridine]
- biocidal activity against aerobic bacteria (in words) [2]: do not show significant biocidal activity
- minimum dose needed to achieve 3-log reduction in bacteria levels ([3]; 1 hour): 200 ppm
- minimum dose needed to achieve 3-log reduction in bacteria levels ([3]; 4 hours): >200 ppm
- activity against SRB (in words) [3]: some activity against SRB, but are not as effective as glutaraldehyde
